{"source": "ChEMBL document CHEMBL5723583", "about": "“Data for DCP probe BAY-9835” (2024)", "key": {"[1]": {"biological_target": "A disintegrin and metalloproteinase with thrombospondin motifs 12 (Homo sapiens, UniProt P58397)", "assay": "Biochemical enzymatic FRET assay (hADAMTS12) ( FRET substrate, HiLyteFluor-488 DELSSMVLELRGLRT-K(QXL520)-E-NH2 (custom synthesis by Anaspec) was used.)"}, "[2]": {"biological_target": "A disintegrin and metalloproteinase with thrombospondin motifs 5 (Homo sapiens, UniProt Q9UNA0)", "assay": "IC50 of hADAMTS5 at 1.0 µM in the Bayer in-house protease panel"}, "[3]": {"biological_target": "Disintegrin and metalloproteinase domain-containing protein 8 (Homo sapiens, UniProt P78325)", "assay": "IC50 of hADAM8 at 1.0 µM in the Bayer in-house protease panel"}, "[4]": {"biological_target": "72 kDa type IV collagenase (Homo sapiens, UniProt P08253)", "assay": "IC50 of hMMP2 at 1.0 µM in the Bayer in-house protease panel"}, "[5]": {"biological_target": "Matrix metalloproteinase-14 (Homo sapiens, UniProt P50281)", "assay": "IC50 of hMMP14 at 1.0 µM in the Bayer in-house protease panel"}, "Caspase-3": {"biological_target": "Caspase-3 (Homo sapiens, UniProt P42574)", "assay": "IC50 of Caspase 3 at 1.0 µM in the Bayer in-house protease panel"}, "[6]": {"biological_target": "Mucosa-associated lymphoid tissue lymphoma translocation protein 1 (Homo sapiens, UniProt Q9UDY8)", "assay": "IC50 of MALT1 at 1.0 µM in the Bayer in-house protease panel"}, "[7]": {"biological_target": "Prostaglandin G/H synthase 1 (Homo sapiens) (UniProt P23219)", "sequence (P23219 whole entry)": "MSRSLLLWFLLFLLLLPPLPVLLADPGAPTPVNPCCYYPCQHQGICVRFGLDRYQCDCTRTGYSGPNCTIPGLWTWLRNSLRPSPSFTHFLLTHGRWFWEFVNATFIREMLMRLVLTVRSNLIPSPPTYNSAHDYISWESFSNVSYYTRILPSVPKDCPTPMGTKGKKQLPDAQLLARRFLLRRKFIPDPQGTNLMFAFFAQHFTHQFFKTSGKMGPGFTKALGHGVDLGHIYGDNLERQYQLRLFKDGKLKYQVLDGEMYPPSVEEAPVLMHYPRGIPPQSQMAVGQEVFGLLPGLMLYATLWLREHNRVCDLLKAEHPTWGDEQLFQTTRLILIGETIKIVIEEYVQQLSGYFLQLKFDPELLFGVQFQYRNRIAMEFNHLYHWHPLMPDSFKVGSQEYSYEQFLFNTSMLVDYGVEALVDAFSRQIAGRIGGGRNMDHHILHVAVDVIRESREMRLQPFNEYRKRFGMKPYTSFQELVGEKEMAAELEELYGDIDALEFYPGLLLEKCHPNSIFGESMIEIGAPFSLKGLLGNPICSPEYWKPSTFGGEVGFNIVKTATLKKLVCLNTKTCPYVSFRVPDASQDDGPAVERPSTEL", "assay": "Inhibition of Cyclooxygenase COX-1 at 10.0 µM in the Eurofins-Panlabs selectivity screen", "settings": "Compound concentration 10.0 uM"}, "[8]": {"biological_target": "Prostaglandin G/H synthase 2 (Homo sapiens) (UniProt P35354)", "assay": "Inhibition of Cyclooxygenase COX-2 at 10.0 µM in the Eurofins-Panlabs selectivity screen", "settings": "Compound concentration 10.0 uM"}, "[9]": {"biological_target": "Nitric oxide synthase 1 (Homo sapiens) (UniProt P29475)", "assay": "Inhibition of Nitric Oxide Synthase, Neuronal (nNOS) at 10.0 µM in the Eurofins-Panlabs selectivity screen", "settings": "Rattus norvegicus; Compound concentration 10.0 uM"}, "[10]": {"biological_target": "Phosphodiesterase 3 (Homo sapiens) (UniProt Q14432+Q13370)", "assay": "Inhibition of Phosphodiesterase PDE3 at 10.0 µM in the Eurofins-Panlabs selectivity screen", "type": "protein assay", "settings": "Compound concentration 10.0 uM"}, "[11]": {"biological_target": "Alpha-2C adrenergic receptor (Homo sapiens) (UniProt P18825)", "sequence (P18825 whole entry)": "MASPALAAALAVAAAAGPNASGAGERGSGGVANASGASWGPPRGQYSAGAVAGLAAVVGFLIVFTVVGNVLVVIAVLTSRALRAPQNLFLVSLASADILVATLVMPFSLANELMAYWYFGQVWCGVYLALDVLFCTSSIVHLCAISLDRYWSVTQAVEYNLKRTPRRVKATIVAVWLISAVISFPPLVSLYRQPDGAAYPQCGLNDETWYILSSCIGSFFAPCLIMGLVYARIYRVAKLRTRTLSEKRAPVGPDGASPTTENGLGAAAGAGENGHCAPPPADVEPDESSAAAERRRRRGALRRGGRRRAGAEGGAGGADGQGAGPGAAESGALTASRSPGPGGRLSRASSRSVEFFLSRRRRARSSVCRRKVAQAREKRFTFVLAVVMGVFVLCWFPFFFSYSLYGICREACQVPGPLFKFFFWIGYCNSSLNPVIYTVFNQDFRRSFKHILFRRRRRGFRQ", "assay": "Inhibition of Adrenergic alpha2C at 10.0 µM in the Eurofins-Panlabs selectivity screen", "settings": "Compound concentration 10.0 uM"}, "[12]": {"biological_target": "Beta-2 adrenergic receptor (Homo sapiens) (UniProt P07550)", "assay": "Inhibition of Adrenergic beta2 at 10.0 µM in the Eurofins-Panlabs selectivity screen", "settings": "Compound concentration 10.0 uM"}, "[13]": {"biological_target": "Androgen receptor (Homo sapiens) (UniProt P10275)", "assay": "Inhibition of Androgen (Testosterone) at 10.0 µM in the Eurofins-Panlabs selectivity screen", "settings": "Compound concentration 10.0 uM"}, "[14]": {"biological_target": "Type-2 angiotensin II receptor (Homo sapiens) (UniProt P50052)", "assay": "Inhibition of Angiotensin AT2 at 10.0 µM in the Eurofins-Panlabs selectivity screen", "settings": "Compound concentration 10.0 uM"}, "[15]": {"biological_target": "B1 bradykinin receptor (Homo sapiens) (UniProt P46663)", "sequence (P46663 whole entry)": "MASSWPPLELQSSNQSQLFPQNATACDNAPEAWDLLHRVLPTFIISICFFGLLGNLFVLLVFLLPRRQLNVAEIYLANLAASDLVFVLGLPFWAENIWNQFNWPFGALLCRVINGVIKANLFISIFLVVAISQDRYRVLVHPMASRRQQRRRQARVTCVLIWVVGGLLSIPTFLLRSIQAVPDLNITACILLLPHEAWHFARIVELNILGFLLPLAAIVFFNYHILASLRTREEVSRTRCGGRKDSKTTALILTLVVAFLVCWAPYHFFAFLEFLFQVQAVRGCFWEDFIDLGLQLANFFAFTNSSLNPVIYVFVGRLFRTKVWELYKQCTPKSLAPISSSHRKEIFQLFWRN", "assay": "Inhibition of Bradykinin B1 at 10.0 µM in the Eurofins-Panlabs selectivity screen", "settings": "Compound concentration 10.0 uM"}, "[16]": {"biological_target": "B2 bradykinin receptor (Homo sapiens) (UniProt P30411)", "assay": "Inhibition of Bradykinin B2 at 10.0 µM in the Eurofins-Panlabs selectivity screen", "settings": "Compound concentration 10.0 uM"}, "[17]": {"biological_target": "Cannabinoid receptor 1 (Homo sapiens) (UniProt P21554)", "assay": "Inhibition of Cannabinoid CB1 at 10.0 µM in the Eurofins-Panlabs selectivity screen", "settings": "Compound concentration 10.0 uM"}, "[18]": {"biological_target": "D(3) dopamine receptor (Homo sapiens) (UniProt P35462)", "sequence (P35462 whole entry)": "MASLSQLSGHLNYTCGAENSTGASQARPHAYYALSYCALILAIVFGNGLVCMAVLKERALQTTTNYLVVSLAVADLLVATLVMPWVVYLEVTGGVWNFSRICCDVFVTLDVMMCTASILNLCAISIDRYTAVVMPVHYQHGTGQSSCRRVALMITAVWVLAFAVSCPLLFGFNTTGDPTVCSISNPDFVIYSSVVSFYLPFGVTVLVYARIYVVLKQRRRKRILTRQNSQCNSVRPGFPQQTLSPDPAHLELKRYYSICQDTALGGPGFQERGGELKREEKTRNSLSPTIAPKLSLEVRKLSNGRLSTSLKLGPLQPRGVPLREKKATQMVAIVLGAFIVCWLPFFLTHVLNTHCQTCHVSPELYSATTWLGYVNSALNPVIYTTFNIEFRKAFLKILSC", "assay": "Inhibition of Dopamine D3 at 10.0 µM in the Eurofins-Panlabs selectivity screen", "settings": "Compound concentration 10.0 uM"}, "[19]": {"biological_target": "Sodium-dependent dopamine transporter (Homo sapiens) (UniProt Q01959)", "assay": "Inhibition of Transporter, Dopamine (DAT) at 10.0 µM in the Eurofins-Panlabs selectivity screen", "settings": "Compound concentration 10.0 uM"}, "[20]": {"biological_target": "GABA transporter (Rattus norvegicus) (UniProt P31647+P23978+P31646+P48056)", "sequence (P31646 whole entry, looked up)": "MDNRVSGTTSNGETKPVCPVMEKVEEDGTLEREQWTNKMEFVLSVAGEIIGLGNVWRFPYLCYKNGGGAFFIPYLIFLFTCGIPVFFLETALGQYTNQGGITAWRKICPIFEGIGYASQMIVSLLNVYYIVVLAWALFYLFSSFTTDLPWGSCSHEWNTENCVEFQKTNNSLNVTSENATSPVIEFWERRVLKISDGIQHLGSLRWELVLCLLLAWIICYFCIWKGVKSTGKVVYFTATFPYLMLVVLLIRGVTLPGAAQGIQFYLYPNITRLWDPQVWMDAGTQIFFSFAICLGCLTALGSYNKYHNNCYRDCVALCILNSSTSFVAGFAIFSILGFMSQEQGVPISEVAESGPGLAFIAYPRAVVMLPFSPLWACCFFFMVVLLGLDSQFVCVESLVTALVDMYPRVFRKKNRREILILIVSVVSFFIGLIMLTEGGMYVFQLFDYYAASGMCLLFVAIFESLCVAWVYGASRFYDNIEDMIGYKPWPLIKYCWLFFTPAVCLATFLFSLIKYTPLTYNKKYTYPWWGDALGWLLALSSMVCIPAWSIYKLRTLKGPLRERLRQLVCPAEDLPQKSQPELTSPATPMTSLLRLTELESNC", "sequence (P31647 whole entry, looked up)": "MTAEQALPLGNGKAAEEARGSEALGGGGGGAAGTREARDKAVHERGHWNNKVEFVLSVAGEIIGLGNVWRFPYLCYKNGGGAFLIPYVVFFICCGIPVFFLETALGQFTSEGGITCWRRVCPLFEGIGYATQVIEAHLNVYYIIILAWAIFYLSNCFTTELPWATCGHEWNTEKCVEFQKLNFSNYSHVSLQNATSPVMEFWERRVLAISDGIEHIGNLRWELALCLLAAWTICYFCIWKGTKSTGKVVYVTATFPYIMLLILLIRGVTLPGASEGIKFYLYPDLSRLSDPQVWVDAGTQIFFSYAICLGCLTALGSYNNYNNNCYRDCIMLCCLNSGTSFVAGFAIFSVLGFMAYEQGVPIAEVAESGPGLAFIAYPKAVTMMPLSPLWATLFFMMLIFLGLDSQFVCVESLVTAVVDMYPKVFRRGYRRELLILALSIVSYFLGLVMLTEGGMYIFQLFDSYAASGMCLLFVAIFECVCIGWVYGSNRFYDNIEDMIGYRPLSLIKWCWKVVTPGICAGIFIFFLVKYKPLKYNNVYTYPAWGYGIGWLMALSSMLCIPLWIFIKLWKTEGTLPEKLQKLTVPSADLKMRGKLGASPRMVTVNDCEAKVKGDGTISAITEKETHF", "sequence (P48056 whole entry, looked up)": "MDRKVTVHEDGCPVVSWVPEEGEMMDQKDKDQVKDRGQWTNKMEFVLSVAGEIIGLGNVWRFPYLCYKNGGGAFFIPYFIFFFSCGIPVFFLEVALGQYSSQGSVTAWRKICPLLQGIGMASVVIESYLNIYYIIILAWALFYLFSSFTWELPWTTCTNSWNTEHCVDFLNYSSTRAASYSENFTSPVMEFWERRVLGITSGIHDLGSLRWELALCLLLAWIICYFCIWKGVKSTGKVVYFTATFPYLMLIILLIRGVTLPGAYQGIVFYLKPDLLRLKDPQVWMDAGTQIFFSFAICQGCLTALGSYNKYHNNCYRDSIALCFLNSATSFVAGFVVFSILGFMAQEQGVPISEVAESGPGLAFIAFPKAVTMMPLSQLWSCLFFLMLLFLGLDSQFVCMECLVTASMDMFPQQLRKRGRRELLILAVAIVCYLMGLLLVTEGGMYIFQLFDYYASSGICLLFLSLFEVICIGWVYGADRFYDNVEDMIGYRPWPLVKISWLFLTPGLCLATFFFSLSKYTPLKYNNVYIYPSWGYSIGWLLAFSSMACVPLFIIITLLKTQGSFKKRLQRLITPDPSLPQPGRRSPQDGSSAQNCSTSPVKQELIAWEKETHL", "assay": "Inhibition of Transporter, GABA at 10.0 µM in the Eurofins-Panlabs selectivity screen", "type": "protein assay", "settings": "Compound concentration 10.0 uM"}, "[21]": {"biological_target": "GABA-A receptor; anion channel (Rattus norvegicus) (UniProt O09028+P15431+P18506+P18508+P19969+P20236+P23574+P23576+P28471+P28473+P30191+P62813+P63079+P63138+Q91ZM7+Q9ES14)", "assay": "Inhibition of GABAA, Chloride Channel, TBOB at 10.0 µM in the Eurofins-Panlabs selectivity screen", "type": "protein-complex assay", "settings": "Compound concentration 10.0 uM"}, "[22]": {"biological_target": "Gamma-aminobutyric acid type B receptor subunit 1 (Homo sapiens) (UniProt Q9UBS5)", "assay": "Inhibition of GABAB, Non-Selective at 10.0 µM in the Eurofins-Panlabs selectivity screen", "settings": "Rattus norvegicus; Compound concentration 10.0 uM"}, "[23]": {"biological_target": "Glucocorticoid receptor (Homo sapiens) (UniProt P04150)", "assay": "Inhibition of Glucocorticoid at 10.0 µM in the Eurofins-Panlabs selectivity screen", "settings": "Compound concentration 10.0 uM"}, "[24]": {"biological_target": "Glutamate receptor ionotropic, kainate (Rattus norvegicus) (UniProt P22756+Q01812+P42260+P42264+Q63273)", "assay": "Inhibition of Glutamate, Kainate at 10.0 µM in the Eurofins-Panlabs selectivity screen", "type": "protein-complex assay", "settings": "Compound concentration 10.0 uM"}, "[25]": {"biological_target": "Glutamate NMDA receptor (Rattus norvegicus) (UniProt P35439+Q00959+Q00960+Q00961+Q62645+Q8VHN2+Q9R1M7)", "assay": "Inhibition of Glutamate, NMDA, Agonism at 10.0 µM in the Eurofins-Panlabs selectivity screen", "type": "protein-complex assay", "settings": "Compound concentration 10.0 uM"}, "[26]": {"biological_target": "Muscarinic acetylcholine receptor M1 (Homo sapiens) (UniProt P11229)", "assay": "Inhibition of Muscarinic M1 at 10.0 µM in the Eurofins-Panlabs selectivity screen", "settings": "Compound concentration 10.0 uM"}, "[27]": {"biological_target": "Muscarinic acetylcholine receptor M4 (Homo sapiens) (UniProt P08173)", "assay": "Inhibition of Muscarinic M4 at 10.0 µM in the Eurofins-Panlabs selectivity screen", "settings": "Compound concentration 10.0 uM"}, "[28]": {"biological_target": "Delta-type opioid receptor (Homo sapiens) (UniProt P41143)", "assay": "Inhibition of Opiate delta1 (OP1, DOP) at 10.0 µM in the Eurofins-Panlabs selectivity screen", "settings": "Compound concentration 10.0 uM"}, "[29]": {"biological_target": "Purinergic P2Y (Rattus norvegicus) (UniProt O35811+Q9EPX4+P49651+Q63371+P41232+O35881+Q6GUG4)", "assay": "Inhibition of Purinergic P2Y at 10.0 µM in the Eurofins-Panlabs selectivity screen", "type": "protein assay", "settings": "Compound concentration 10.0 uM"}, "[30]": {"biological_target": "5-hydroxytryptamine receptor 1A (Homo sapiens) (UniProt P08908)", "assay": "Inhibition of Serotonin (5-Hydroxytryptamine) 5-HT1A at 10.0 µM in the Eurofins-Panlabs selectivity screen", "settings": "Compound concentration 10.0 uM"}, "[31]": {"biological_target": "5-hydroxytryptamine receptor 2A (Homo sapiens) (UniProt P28223)", "sequence (P28223 whole entry)": "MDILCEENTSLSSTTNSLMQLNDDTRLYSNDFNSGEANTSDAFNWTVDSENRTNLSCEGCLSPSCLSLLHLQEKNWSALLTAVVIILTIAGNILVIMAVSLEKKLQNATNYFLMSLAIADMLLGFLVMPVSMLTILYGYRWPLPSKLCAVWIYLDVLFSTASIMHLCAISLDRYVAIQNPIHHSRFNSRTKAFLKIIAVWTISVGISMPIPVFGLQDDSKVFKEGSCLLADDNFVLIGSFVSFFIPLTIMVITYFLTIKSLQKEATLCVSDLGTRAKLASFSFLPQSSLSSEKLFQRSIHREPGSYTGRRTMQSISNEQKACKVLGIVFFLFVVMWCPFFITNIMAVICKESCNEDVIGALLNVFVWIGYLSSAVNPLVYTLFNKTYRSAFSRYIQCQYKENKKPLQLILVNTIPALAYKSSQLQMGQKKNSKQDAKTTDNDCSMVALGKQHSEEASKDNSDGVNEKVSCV", "assay": "Inhibition of Serotonin (5-Hydroxytryptamine) 5-HT2A at 10.0 µM in the Eurofins-Panlabs selectivity screen", "settings": "Compound concentration 10.0 uM"}, "[32]": {"biological_target": "Sodium-dependent serotonin transporter (Homo sapiens) (UniProt P31645)", "assay": "Inhibition of Transporter, Serotonin (5-Hydroxytryptamine) (SERT) at 10.0 µM in the Eurofins-Panlabs selectivity screen", "settings": "Compound concentration 10.0 uM"}}, "note": "Calls of active or inactive are those of the source. The calls are words filed in the database; no cut-off is given here.", "data": [{"smiles": "Cn1nccc1[C@]1(CNC(=O)c2ccc(F)c(F)c2-c2ccc(C(F)(F)F)cc2)NC(=O)NC1=O", "values": [{"measurement": "IC50", "setting": "[1]", "value": "30 nM (active)"}, {"measurement": "IC50", "setting": "[2]", "value": 9.92, "unit": "µM"}, {"measurement": "IC50", "setting": "[3]", "value": 2250, "unit": "nM"}, {"measurement": "IC50", "setting": "[4]", "value": "> 100", "unit": "µM"}, {"measurement": "IC50", "setting": "[5]", "value": "> 100", "unit": "µM"}, {"measurement": "IC50", "setting": "Caspase-3", "value": "> 100", "unit": "µM"}, {"measurement": "IC50", "setting": "[6]", "value": "> 100", "unit": "µM"}, {"measurement": "inhibition", "setting": "[7]", "value": -5, "unit": "%"}, {"measurement": "inhibition", "setting": "[8]", "value": 11, "unit": "%"}, {"measurement": "inhibition", "setting": "[9]", "value": 0, "unit": "%"}, {"measurement": "inhibition", "setting": "[10]", "value": 11, "unit": "%"}, {"measurement": "inhibition", "setting": "[11]", "value": -1, "unit": "%"}, {"measurement": "inhibition", "setting": "[12]", "value": -9, "unit": "%"}, {"measurement": "inhibition", "setting": "[13]", "value": 3, "unit": "%"}, {"measurement": "inhibition", "setting": "[14]", "value": 0, "unit": "%"}, {"measurement": "inhibition", "setting": "[15]", "value": 1, "unit": "%"}, {"measurement": "inhibition", "setting": "[16]", "value": -6, "unit": "%"}, {"measurement": "inhibition", "setting": "[17]", "value": -3, "unit": "%"}, {"measurement": "inhibition", "setting": "[18]", "value": 2, "unit": "%"}, {"measurement": "inhibition", "setting": "[19]", "value": 7, "unit": "%"}, {"measurement": "inhibition", "setting": "[20]", "value": 7, "unit": "%"}, {"measurement": "inhibition", "setting": "[21]", "value": 0, "unit": "%"}, {"measurement": "inhibition", "setting": "[22]", "value": 3, "unit": "%"}, {"measurement": "inhibition", "setting": "[23]", "value": 3, "unit": "%"}, {"measurement": "inhibition", "setting": "[24]", "value": 12, "unit": "%"}, {"measurement": "inhibition", "setting": "[25]", "value": 1, "unit": "%"}, {"measurement": "inhibition", "setting": "[26]", "value": -6, "unit": "%"}, {"measurement": "inhibition", "setting": "[27]", "value": -6, "unit": "%"}, {"measurement": "inhibition", "setting": "[28]", "value": 18, "unit": "%"}, {"measurement": "inhibition", "setting": "[29]", "value": -4, "unit": "%"}, {"measurement": "inhibition", "setting": "[30]", "value": -3, "unit": "%"}, {"measurement": "inhibition", "setting": "[31]", "value": -7, "unit": "%"}, {"measurement": "inhibition", "setting": "[32]", "value": 10, "unit": "%"}]}]}
